Where two headings read alike, the source gives them in different places.
What was measured:
Experiment in all cases: Kinase panel
Format in all cases: biochemical
MARK2/PAR-IBA = MARK2/PAR-IBA (Homo sapiens, UniProt Q7KZI7); settings: read-out: residual enzyme activity
Outline: (§1)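 Residual enzyme activity is given for kinases screened biochemically with compound at a fixed 1 µM. Kinases showing ≤40% residual activity (≥60% inhibition) were identified as inhibited.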

PKCD = PKCD (Homo sapiens, UniProt Q05655); settings: read-out: residual enzyme activity
Outline: as §1

MLK3/MAP3K11 = MLK3/MAP3K11 (Homo sapiens, UniProt Q16584); settings: MLK3/MAP3K11, 1 µM; read-out: residual enzyme activity
Outline: as §1

AURORA B = AURORA B (Homo sapiens, UniProt Q96GD4); settings: read-out: residual enzyme activity
Outline: as §1

PDGFRB = PDGFRB (Homo sapiens, UniProt P09619); settings: read-out: residual enzyme activity
Outline: as §1

TBK1 = TBK1 (Homo sapiens, UniProt Q9UHD2); settings: TBK1, 1 µM; read-out: residual enzyme activity
Outline: as §1

MKK6 = MKK6 (Homo sapiens, UniProt P52564); settings: MKK6, 1 µM; read-out: residual enzyme activity
Outline: as §1

MARK1 = MARK1 (Homo sapiens, UniProt Q9P0L2); settings: MARK1, 1 µM; read-out: residual enzyme activity
Outline: as §1

MLCK2/MYLK2 = MLCK2/MYLK2 (Homo sapiens, UniProt Q9H1R3); settings: MLCK2/MYLK2, 1 µM; read-out: residual enzyme activity
Outline: as §1

FER = FER (Homo sapiens, UniProt P16591); settings: read-out: residual enzyme activity
Outline: as §1

WNK1 = WNK1 (Homo sapiens, UniProt Q9H4A3); settings: WNK1, 1 µM; read-out: residual enzyme activity
Outline: as §1

P38B/MAPK11 = P38B/MAPK11 (Homo sapiens, UniProt Q15759); settings: read-out: residual enzyme activity
Outline: as §1

GRK5 = GRK5 (Homo sapiens, UniProt P34947); settings: GRK5, 1 µM; read-out: residual enzyme activity
Outline: as §1

MSSK1/STK23 = MSSK1/STK23 (Homo sapiens, UniProt Q9UPE1); settings: MSSK1/STK23, 1 µM; read-out: residual enzyme activity
Outline: as §1

NLK = NLK (Homo sapiens, UniProt Q9UBE8); settings: read-out: residual enzyme activity
Outline: as §1

HIPK1 = HIPK1 (Homo sapiens, UniProt Q86Z02); settings: HIPK1, 1 µM; read-out: residual enzyme activity
Outline: as §1

CTK/MATK = CTK/MATK (Homo sapiens, UniProt P42679); settings: read-out: residual enzyme activity
Outline: as §1

ALK = ALK (Homo sapiens, UniProt Q9UM73); settings: read-out: residual enzyme activity
Outline: as §1

CAMK1D = CAMK1D (Homo sapiens, UniProt Q8IU85); settings: read-out: residual enzyme activity
Outline: as §1

LATS2 = LATS2 (Homo sapiens, UniProt Q9NRM7); settings: LATS2, 1 µM; read-out: residual enzyme activity
Outline: as §1

ZIPK/DAPK3 = ZIPK/DAPK3 (Homo sapiens, UniProt O43293); settings: ZIPK/DAPK3, 1 µM; read-out: residual enzyme activity
Outline: as §1

TAOK3/JIK = TAOK3/JIK (Homo sapiens, UniProt Q9H2K8); settings: read-out: residual enzyme activity
Outline: as §1

ALK5/TGFBR1 = ALK5/TGFBR1 (Homo sapiens, UniProt P36897); settings: ALK5/TGFBR1, 1 µM; read-out: residual enzyme activity
Outline: as §1

FYN = FYN (Homo sapiens, UniProt P06241); settings: read-out: residual enzyme activity
Outline: as §1

STK32B/YANK2 = STK32B/YANK2 (Homo sapiens, UniProt Q9NY57); settings: STK32B/YANK2, 1 µM; read-out: residual enzyme activity
Outline: as §1

FGFR1 = FGFR1 (Homo sapiens, UniProt P11362); settings: FGFR1, 1 µM; read-out: residual enzyme activity
Outline: as §1

STK21/CIT = STK21/CIT (Homo sapiens, UniProt O14578); settings: read-out: residual enzyme activity
Outline: as §1

RIPK2 = RIPK2 (Homo sapiens, UniProt O43353); settings: RIPK2, 1 µM; read-out: residual enzyme activity
Outline: as §1

FGFR3 = FGFR3 (Homo sapiens, UniProt P22607); settings: FGFR3, 1 µM; read-out: residual enzyme activity
Outline: as §1

DCAMKL2 = DCAMKL2 (Homo sapiens, UniProt Q8N568); settings: DCAMKL2, 1 µM; read-out: residual enzyme activity
Outline: as §1

PDGFRA = PDGFRA (Homo sapiens, UniProt P16234); settings: read-out: residual enzyme activity
Outline: as §1

CDK4/CYCLIN D1 = CDK4/CYCLIN D1 (Homo sapiens, UniProt P11802); settings: CDK4/cyclin D1, 1 µM; read-out: residual enzyme activity
Outline: as §1

PKG1B = PKG1B (Homo sapiens, UniProt Q13976); settings: read-out: residual enzyme activity
Outline: as §1

CDK4/CYCLIN D3 = CDK4/CYCLIN D3 (Homo sapiens, UniProt P11802); settings: CDK4/cyclin D3, 1 µM; read-out: residual enzyme activity
Outline: as §1

Chain of GRK5 (P34947 whole entry, species assumed): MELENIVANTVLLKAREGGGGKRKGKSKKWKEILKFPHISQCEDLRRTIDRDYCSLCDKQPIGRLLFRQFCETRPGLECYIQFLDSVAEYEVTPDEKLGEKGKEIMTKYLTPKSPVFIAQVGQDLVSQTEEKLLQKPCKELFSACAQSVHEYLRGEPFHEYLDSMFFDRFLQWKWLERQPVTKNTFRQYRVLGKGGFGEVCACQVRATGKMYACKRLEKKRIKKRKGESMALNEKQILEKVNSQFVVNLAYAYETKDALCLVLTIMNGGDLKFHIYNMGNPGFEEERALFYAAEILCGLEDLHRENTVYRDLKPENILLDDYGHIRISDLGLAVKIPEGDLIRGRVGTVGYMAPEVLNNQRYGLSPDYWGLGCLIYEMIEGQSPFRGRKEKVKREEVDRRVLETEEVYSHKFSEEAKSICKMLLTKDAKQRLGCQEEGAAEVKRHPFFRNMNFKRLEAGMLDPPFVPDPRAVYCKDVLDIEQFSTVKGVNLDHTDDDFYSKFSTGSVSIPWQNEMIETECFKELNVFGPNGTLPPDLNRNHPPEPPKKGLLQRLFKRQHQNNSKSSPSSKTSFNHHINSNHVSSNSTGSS
Chain of ALK (Q9UM73 19-1620): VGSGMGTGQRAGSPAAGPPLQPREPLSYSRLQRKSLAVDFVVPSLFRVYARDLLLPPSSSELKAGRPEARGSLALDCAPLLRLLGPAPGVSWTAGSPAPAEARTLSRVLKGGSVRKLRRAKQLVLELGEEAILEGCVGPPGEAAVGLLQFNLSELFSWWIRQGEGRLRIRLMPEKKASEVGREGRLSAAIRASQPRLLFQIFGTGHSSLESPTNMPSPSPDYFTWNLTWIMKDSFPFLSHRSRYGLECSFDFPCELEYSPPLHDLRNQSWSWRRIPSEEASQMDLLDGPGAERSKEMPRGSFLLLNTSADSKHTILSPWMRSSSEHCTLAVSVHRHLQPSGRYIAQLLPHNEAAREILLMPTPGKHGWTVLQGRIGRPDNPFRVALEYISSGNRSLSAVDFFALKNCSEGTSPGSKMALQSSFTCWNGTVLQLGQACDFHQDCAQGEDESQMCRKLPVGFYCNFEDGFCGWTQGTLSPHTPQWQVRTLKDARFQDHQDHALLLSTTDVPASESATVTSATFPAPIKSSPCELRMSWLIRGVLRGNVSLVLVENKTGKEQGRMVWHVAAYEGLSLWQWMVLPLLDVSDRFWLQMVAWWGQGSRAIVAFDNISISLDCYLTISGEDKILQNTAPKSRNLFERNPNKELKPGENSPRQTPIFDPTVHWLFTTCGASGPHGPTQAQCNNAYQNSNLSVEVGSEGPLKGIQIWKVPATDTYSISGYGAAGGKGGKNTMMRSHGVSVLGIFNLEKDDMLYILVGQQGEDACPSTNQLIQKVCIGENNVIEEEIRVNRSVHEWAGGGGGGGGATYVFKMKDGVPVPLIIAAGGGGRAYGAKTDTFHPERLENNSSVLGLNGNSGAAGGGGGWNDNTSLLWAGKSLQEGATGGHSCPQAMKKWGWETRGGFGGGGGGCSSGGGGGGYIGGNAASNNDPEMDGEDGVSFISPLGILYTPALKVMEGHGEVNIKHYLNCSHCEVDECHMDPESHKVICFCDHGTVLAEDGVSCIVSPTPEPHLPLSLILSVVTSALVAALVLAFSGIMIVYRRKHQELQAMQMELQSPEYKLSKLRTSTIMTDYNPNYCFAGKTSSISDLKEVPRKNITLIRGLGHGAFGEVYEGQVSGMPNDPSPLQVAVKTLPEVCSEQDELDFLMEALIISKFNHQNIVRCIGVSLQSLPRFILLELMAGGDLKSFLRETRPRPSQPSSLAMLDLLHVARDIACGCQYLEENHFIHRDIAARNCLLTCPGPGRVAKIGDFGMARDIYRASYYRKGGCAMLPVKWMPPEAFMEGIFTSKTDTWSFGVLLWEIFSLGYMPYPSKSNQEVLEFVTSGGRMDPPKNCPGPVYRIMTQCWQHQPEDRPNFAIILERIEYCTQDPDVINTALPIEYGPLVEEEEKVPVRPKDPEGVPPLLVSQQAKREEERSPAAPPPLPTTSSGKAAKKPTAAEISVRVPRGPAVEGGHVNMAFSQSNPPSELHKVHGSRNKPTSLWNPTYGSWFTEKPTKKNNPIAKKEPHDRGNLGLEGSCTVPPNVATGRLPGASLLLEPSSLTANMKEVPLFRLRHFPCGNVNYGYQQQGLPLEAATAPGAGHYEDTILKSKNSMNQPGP
Chain of TBK1 (Q9UHD2 whole entry, species assumed): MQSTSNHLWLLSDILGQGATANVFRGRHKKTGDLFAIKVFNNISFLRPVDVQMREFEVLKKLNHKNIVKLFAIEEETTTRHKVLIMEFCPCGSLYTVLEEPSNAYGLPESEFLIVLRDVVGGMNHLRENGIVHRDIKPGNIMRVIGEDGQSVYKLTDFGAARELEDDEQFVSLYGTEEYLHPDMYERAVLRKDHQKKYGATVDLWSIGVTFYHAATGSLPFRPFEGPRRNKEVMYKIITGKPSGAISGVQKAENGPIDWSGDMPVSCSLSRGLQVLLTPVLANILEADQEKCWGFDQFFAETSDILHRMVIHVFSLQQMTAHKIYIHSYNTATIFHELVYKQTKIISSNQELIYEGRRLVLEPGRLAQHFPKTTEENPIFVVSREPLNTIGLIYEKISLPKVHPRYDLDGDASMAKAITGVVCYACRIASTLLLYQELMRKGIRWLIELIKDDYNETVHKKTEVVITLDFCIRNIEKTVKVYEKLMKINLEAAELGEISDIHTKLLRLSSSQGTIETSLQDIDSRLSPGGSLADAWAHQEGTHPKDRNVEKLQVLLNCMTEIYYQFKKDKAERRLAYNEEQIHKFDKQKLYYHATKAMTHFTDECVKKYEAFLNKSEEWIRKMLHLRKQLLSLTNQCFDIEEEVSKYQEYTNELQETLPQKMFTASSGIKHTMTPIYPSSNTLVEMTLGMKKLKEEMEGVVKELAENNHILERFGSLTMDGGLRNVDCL
Chain of MKK6 (P52564 whole entry, species assumed): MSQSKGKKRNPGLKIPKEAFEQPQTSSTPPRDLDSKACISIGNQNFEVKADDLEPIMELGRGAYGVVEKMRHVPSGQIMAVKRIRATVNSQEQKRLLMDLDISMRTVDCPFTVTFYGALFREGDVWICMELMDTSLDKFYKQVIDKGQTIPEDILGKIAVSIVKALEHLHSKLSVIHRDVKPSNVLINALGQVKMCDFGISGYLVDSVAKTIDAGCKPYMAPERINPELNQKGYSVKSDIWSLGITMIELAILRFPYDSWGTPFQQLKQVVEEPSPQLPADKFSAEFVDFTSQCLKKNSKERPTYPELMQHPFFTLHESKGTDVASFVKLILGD
Chain of MARK2/PAR-IBA (Q7KZI7 whole entry): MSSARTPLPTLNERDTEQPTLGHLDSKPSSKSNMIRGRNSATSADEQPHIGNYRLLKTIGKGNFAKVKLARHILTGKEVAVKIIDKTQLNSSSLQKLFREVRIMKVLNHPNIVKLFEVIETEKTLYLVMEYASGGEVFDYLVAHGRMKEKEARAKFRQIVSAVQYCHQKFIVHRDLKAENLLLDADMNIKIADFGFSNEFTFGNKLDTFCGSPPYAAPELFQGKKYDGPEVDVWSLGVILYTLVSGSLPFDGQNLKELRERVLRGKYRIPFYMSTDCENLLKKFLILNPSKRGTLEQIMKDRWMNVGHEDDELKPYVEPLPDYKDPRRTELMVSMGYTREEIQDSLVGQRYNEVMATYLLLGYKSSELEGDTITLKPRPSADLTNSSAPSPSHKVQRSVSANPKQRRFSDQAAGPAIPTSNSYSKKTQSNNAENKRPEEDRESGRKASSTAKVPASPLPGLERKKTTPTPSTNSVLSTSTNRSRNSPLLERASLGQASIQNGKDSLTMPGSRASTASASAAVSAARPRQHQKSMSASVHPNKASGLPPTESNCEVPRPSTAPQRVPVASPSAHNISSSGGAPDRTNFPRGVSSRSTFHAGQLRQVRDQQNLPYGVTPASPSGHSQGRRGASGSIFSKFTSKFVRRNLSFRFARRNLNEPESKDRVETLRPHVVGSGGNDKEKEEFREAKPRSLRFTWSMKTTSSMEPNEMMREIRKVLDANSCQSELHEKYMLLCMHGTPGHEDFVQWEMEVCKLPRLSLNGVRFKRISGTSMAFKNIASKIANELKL
Chain of PKCD (Q05655 whole entry, species assumed): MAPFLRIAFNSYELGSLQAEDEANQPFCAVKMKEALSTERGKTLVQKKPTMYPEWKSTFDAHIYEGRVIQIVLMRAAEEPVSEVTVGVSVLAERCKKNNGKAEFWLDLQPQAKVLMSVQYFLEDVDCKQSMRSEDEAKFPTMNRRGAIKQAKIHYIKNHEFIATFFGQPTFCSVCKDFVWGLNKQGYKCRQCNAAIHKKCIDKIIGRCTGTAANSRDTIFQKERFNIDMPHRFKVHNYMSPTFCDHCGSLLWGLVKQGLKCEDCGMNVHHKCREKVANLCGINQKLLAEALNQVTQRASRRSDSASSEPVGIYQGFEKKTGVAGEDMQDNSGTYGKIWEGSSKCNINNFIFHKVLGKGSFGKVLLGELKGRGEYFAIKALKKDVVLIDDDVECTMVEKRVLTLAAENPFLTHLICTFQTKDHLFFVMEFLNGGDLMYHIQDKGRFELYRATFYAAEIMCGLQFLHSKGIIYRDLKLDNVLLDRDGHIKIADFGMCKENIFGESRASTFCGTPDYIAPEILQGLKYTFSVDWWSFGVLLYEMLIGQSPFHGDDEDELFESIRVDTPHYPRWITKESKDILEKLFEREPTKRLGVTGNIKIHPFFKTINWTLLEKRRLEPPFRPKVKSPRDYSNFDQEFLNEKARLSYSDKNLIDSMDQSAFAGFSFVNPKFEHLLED
Chain of AURORA B (Q96GD4 whole entry): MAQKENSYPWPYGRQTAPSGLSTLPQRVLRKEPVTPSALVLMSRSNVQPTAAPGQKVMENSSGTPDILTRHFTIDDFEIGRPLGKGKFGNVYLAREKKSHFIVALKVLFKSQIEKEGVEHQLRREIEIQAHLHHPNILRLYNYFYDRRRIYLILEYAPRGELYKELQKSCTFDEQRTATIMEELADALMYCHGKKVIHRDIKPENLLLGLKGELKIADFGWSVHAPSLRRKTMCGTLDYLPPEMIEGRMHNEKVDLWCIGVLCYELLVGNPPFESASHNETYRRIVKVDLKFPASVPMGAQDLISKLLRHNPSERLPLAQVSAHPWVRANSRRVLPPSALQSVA

Cc1cn(-c2cc(C(=O)Nc3ccc(C)c(N4Cc5cnc(NC6CC6)nc5C5(CC5)C4=O)c3)cc(C(F)(F)F)c2)cn1 [Compound 8, N-(3-(2'-(cyclopropylamino)-7'-oxo-5'H-spiro[cyclopropane-1,8'-pyrido[4,3-d]pyrimidine]-6'(7'H)-yl)-4-methylphenyl)-3-(4-methyl-1H-imidazol-1-yl)-5-(trifluoromethyl)benzamide]
remaining activity at 1 µM (MARK2/PAR-IBA; MARK2/PAR-IBA): > 40% | remaining activity at 1 µM (PKCD): > 40% | remaining activity at 1 µM (MLK3/MAP3K11): ≤ 40% | remaining activity at 1 µM (AURORA B): > 40% | remaining activity at 1 µM (PDGFRB): ≤ 40% | remaining activity at 1 µM (TBK1): > 40% | remaining activity at 1 µM (MKK6): > 40% | remaining activity at 1 µM (MARK1): > 40% | remaining activity at 1 µM (MLCK2/MYLK2): ≤ 40% | remaining activity at 1 µM (FER): ≤ 40% | remaining activity at 1 µM (WNK1): > 40% | remaining activity at 1 µM (P38B/MAPK11; P38B/MAPK11, 1 µM): ≤ 40% | remaining activity at 1 µM (GRK5): > 40% | remaining activity at 1 µM (MSSK1/STK23): > 40% | remaining activity at 1 µM (NLK): > 40% | remaining activity at 1 µM (HIPK1): > 40% | remaining activity at 1 µM (CTK/MATK): > 40% | remaining activity at 1 µM (ALK): > 40% | remaining activity at 1 µM (CAMK1D; CAMK1D): > 40% | remaining activity at 1 µM (LATS2): ≤ 40% | remaining activity at 1 µM (ZIPK/DAPK3): > 40% | remaining activity at 1 µM (TAOK3/JIK): ≤ 40% | remaining activity at 1 µM (ALK5/TGFBR1): > 40% | remaining activity at 1 µM (FYN): ≤ 40% | remaining activity at 1 µM (STK32B/YANK2): ≤ 40% | remaining activity at 1 µM (FGFR1): ≤ 40% | remaining activity at 1 µM (STK21/CIT): > 40% | remaining activity at 1 µM (RIPK2): > 40% | remaining activity at 1 µM (FGFR3): ≤ 40% | remaining activity at 1 µM (DCAMKL2): > 40% | remaining activity at 1 µM (PDGFRA): ≤ 40% | remaining activity at 1 µM (CDK4/CYCLIN D1): > 40% | remaining activity at 1 µM (PKG1B; PKG1B): > 40% | remaining activity at 1 µM (CDK4/CYCLIN D3): > 40%

Cc1ccc(Nc2ncc3c(n2)C2(CC2)C(=O)N(c2cc(NC(=O)c4cccc(C(F)(F)F)c4)ccc2C)C3)cn1 [Compound 51, N-(4-methyl-3-(2'-((6-methylpyridin-3-yl)amino)-7'-oxo-5'H-spiro[cyclopropane-1,8'-pyrido[4,3-d]pyrimidine]-6'(7'H)-yl)phenyl)-3-(trifluoromethyl)benzamide]
remaining activity at 1 µM (MARK2/PAR-IBA; MARK2/PAR-IBa): > 40% | remaining activity at 1 µM (PKCD): > 40% | remaining activity at 1 µM (MLK3/MAP3K11): ≤ 40% | remaining activity at 1 µM (AURORA B): > 40% | remaining activity at 1 µM (PDGFRB): ≤ 40% | remaining activity at 1 µM (TBK1): > 40% | remaining activity at 1 µM (MKK6): > 40% | remaining activity at 1 µM (MARK1): > 40% | remaining activity at 1 µM (MLCK2/MYLK2): ≤ 40% | remaining activity at 1 µM (FER): ≤ 40% | remaining activity at 1 µM (WNK1): > 40% | remaining activity at 1 µM (P38B/MAPK11; P38b/MAPK11, 1 µM): ≤ 40% | remaining activity at 1 µM (GRK5): > 40% | remaining activity at 1 µM (MSSK1/STK23): > 40% | remaining activity at 1 µM (NLK): > 40% | remaining activity at 1 µM (HIPK1): > 40% | remaining activity at 1 µM (CTK/MATK): > 40% | remaining activity at 1 µM (ALK): > 40% | remaining activity at 1 µM (CAMK1D; CAMK1d): > 40% | remaining activity at 1 µM (LATS2): ≤ 40% | remaining activity at 1 µM (ZIPK/DAPK3): > 40% | remaining activity at 1 µM (TAOK3/JIK): ≤ 40% | remaining activity at 1 µM (ALK5/TGFBR1): > 40% | remaining activity at 1 µM (FYN): ≤ 40% | remaining activity at 1 µM (STK32B/YANK2): ≤ 40% | remaining activity at 1 µM (FGFR1): ≤ 40% | remaining activity at 1 µM (STK21/CIT): > 40% | remaining activity at 1 µM (RIPK2): > 40% | remaining activity at 1 µM (FGFR3): ≤ 40% | remaining activity at 1 µM (DCAMKL2): > 40% | remaining activity at 1 µM (PDGFRA): ≤ 40% | remaining activity at 1 µM (CDK4/CYCLIN D1): > 40% | remaining activity at 1 µM (PKG1B; PKG1b): > 40% | remaining activity at 1 µM (CDK4/CYCLIN D3): > 40%

— patent EP4722212A1, “NOVEL COMPOUND FOR INHIBITING PROTEIN KINASES AND PHARMACEUTICAL COMPOSITION COMPRISING SAME” (Magicbullettherapeutics Co., Ltd., priority 2023, dated 2024)
